# Patent US6372183B1 (priority 1991, dated 2002)
# Read-outs that look alike come from different tables or passages of the source.
# Assays:
# [1] = tested on: nicotinic acetylcholine receptors (NAChR)
# Method: The cells were plated and loaded with the fluorescent dye Fluo-3 and the assays were carried out substantially as described in the modified method of Example 3A except that the nicotinic receptors of the cells were activated.
# [2] = tested on: muscarinic acetylcholine receptors (MAChRs)
# [3] = target: human neuronal calcium channel α1D, α2 and β subunits (Homo sapiens, UniProt Q01668); conditions: 13old cells; 50 mM KCl
# Method: The assays were conducted using the fully automated version of the assay, as described for analysis of calcium channels in positive control IMR32 and SHSY5Y cells. Fluorescence was measured prior to addition of KCl to the cells to record pre-reagent fluorescence, i.e., noise, fluorescence. Signal fluorescence is the maximal fluorescence recorded after addition of KCl to the cells.
# The automated assays were performed as described for analysis of calcium channel activity of IMR32 and SHSY5Y cells. For each dose-dependence assay, different wells of the microtiter plate received different concentrations of the agonist or antagonist, the background fluorescence was measured, and. […] Repeated fluorescence measurements were made before and after KCl addition and the values were recorded. A total of five fluorescence readings were taken before KCl addition. […] The plate was then automatically repositioned at the fluorescence measuring position (a delay of two seconds was measured between reagent addition and the first fluorescence measurement after reagent addition) and 125 fluorescence measurements were taken and values were recorded. […]
# Dose-response curves were generated from the fluorescence data. In constructing these curves, the fluorescence value recorded in the presence of each concentration of compound was plotted as the percent maximum fluorescence vs. concentration. […]
# [4] = tested on: voltage-dependent calcium channels
# Method: (§1) SHSY5Y cells, induced for six days with 10 μM retinoic acid (Sigma), and IMR32 cells, induced for ten days with 1 mM dibutyryl cAMP (dbcAMP) and 2.5 μM bromodeoxyuridine (BrdU) (both from Boehringer-Mannheim, Indianapolis, IN) were treated with various calcium channel interactive drugs before kCl depolarization and measurement of fluorescence.
# [5] = tested on: voltage-dependent calcium channels; remark: listed apart in the source
# Method: as §1
# Sequence of human neuronal calcium channel α1D, α2 and β subunits (Q01668 whole entry): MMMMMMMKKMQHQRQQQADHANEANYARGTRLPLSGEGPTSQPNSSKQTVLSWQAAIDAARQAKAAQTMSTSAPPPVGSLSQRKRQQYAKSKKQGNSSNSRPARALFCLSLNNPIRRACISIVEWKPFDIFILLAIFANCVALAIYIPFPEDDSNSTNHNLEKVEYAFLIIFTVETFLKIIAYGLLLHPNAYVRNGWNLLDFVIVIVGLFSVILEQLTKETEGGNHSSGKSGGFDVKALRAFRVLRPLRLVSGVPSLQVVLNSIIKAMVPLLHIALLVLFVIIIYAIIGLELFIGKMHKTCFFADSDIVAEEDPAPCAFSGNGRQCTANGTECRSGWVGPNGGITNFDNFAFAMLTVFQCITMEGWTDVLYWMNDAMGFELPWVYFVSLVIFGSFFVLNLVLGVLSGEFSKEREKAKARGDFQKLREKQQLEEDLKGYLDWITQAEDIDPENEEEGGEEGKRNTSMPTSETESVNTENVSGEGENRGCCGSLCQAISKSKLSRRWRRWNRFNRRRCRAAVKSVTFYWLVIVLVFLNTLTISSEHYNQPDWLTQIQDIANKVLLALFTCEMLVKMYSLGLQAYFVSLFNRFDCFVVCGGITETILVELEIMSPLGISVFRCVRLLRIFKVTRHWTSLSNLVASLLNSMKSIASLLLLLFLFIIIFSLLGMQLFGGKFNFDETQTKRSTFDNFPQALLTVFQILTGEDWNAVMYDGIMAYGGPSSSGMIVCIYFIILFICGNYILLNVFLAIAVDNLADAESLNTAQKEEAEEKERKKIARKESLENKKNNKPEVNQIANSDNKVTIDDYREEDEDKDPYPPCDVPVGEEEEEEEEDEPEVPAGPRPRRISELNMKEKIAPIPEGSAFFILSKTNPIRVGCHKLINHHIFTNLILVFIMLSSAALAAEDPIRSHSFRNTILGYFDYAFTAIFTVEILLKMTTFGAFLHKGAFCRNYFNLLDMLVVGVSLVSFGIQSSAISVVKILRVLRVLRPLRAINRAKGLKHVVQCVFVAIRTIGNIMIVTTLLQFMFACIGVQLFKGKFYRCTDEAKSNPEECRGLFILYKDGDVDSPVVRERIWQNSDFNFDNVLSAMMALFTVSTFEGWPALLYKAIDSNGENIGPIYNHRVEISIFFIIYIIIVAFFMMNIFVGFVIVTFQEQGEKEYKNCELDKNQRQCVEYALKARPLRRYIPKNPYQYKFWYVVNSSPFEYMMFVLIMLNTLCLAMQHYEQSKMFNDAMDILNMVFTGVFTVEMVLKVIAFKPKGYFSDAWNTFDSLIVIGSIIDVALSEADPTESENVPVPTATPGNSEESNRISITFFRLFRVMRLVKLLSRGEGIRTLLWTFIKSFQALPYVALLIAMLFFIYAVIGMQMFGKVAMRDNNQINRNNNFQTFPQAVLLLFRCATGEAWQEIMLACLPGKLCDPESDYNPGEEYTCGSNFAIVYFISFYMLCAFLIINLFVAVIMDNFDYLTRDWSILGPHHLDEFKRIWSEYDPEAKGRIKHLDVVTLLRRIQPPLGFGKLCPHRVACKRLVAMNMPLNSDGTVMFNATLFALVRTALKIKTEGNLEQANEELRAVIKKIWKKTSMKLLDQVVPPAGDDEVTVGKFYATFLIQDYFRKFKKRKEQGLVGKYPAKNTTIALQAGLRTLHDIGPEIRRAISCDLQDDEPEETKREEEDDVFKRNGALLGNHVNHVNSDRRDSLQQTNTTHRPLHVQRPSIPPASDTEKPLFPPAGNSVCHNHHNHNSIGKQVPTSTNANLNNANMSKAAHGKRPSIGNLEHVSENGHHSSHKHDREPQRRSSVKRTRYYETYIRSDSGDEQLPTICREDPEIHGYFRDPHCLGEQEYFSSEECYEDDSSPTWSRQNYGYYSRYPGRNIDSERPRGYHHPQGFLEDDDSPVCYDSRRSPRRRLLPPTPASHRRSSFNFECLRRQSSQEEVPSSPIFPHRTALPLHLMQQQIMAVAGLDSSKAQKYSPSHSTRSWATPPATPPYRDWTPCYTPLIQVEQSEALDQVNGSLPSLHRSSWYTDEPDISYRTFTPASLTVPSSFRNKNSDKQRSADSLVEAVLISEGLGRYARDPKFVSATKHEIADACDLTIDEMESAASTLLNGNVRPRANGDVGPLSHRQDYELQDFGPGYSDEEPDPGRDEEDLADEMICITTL
molecule,measurement,setting,value
C[N+](C)(C)CCCCCC[N+](C)(C)C [hexamethonium],Fluorescence S/N ratio,[1],1.0
CNC1(C)C2CCC(C2)C1(C)C (stereo not shown) [mecamylamine],Fluorescence S/N ratio,[1],1.0
CN1CCCC1c1cccnc1 (stereo not shown) [nicotine],Fluorescence S/N ratio,"[1]; IMR32 cells, 200 μM agonist alone, Equation 2",2.3
CN1[C@@H]2C[C@@H](OC(=O)[C@H](CO)c3ccccc3)C[C@H]1[C@@H]1O[C@@H]12 [scopolamine],Fluorescence S/N ratio,[2],1.0
Bay K 8644 [BayK 8644],Concentration at which potentiation of the fluorescence response to KCl was maximal,[3],100 nM
same,Fluorescence Signal to Noise Ratio,"[4]; IMR32, 50 mM KCl and 1 μM compound",2.5
same,Fluorescence Signal to Noise Ratio,"[5]; SHSY5Y, 50 mM KCl and 1 μM compound",2.7
D-tubocurarine [DTC],Fluorescence S/N ratio,[1],1.0
KCl [KC1],Fluorescence Signal to Noise Ratio,"[4]; IMR32 (dbcAMP/BrdU induced), 50 mM KCl alone",2.3
same,Fluorescence Signal to Noise Ratio,"[5]; SHSY5Y (retinoic acid induced), 50 mM KCl alone",1.9
cadmium,Fluorescence Signal to Noise Ratio,"[4]; IMR32, 50 mM KCl and 200 μM compound",1.0
same,Fluorescence Signal to Noise Ratio,"[5]; SHSY5Y, 50 mM KCl and 200 μM compound",1.0
omega-CgTx,Inhibition of the KCl-induced fluorescence increase (in words),[3],did not completely inhibit
